Data on 71 compounds can be found in the supplement of paper PMC6723410.

For the experiment, the system named is GUMC-403. As to the kind of experiment: viability at highest tested concentration (max response) relative to DMSO (% of DMSO control); higher = less cytotoxic. Particulars: library / dose series: MIPE library, 11-point 1:3 dilution; top concentration 46.1 µM; 48 h. The method in brief: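 Plates of 1536 wells were seeded with 700 patient-derived GUMC-403 papilloma cells per well, grown by conditional reprogramming, in 5 μL F + Y medium and kept overnight at 37 °C. Compounds followed at 23 nL by pin tool over an 11-point 1:3 series, for 48 h. After a CellTiter-Glo luminescence read on a ViewLux, signals were set against vehicle wells as 100% and empty wells as 0%. The reported number is viability at the highest tested concentration relative to vehicle control.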

For `O=C(O)c1ccc(-n2nc(-c3ccccc3O)nc2-c2ccccc2O)cc1`, the viability came to 80.9. With `NC1(Cc2ccc(Cl)cc2)CCN(c2ncnc3[nH]ccc23)CC1` the figure was 62.8; with `N#C/C(=C\c1ccc(O)c(O)c1)C(=O)NCc1ccccc1`, 110. With `COc1nccc(-c2c(-c3ccc(F)cc3)ncn2C2CCC(O)CC2)n1` (stereo unspecified), the viability is 131. For the compound `OC[C@H]1O[C@H](C[C@@H]1O)[N]2C=NC3=C2\N=C/NC[C@H]3O`, the viability was determined as 83.1. `Cn1cnc2c(F)c(Nc3ccc(Br)cc3F)c(C(=O)NOCCO)cc21` returned a viability of 89.6. With `CNC(=O)c1c(-c2ccc(F)cc2)oc2cc(N(CCO)[S+](C)(=O)[O-])c(C3CC3)cc12` the figure was 69.1. Next, `CC\1=C(C(\N=C(/N1)C2=CC(=NC=C2)Cl)C3=C(F)C=C(Cl)C=C3)/C(=O)NC4=C(F)C=C5[NH]N=CC5=C4` (stereo unspecified): 101; `Cc1ccccc1N1C(=O)c2cc([S+](N)(=O)[O-])c(Cl)cc2NC1C` (stereo unspecified): 105; `CC(C)n1cnc2c(NCCc3ccc(O)cc3)nc(-c3csc4ccccc34)nc21`: 112. Regarding `CC(C)C[C@H](CC(=O)O)C(=O)N[C@@H](Cc1c[nH]c2ccccc12)C(=O)N[C@@H](C)c1ccccc1`, the viability came to 108. With `Oc1nc(-c2ccc(C(F)(F)F)cc2)nc2c1CSCC2` the figure was 86.4. Turning to `C[C@H]1O[C@H]([C@H](O)[C@@H]1O)N2\C=C(F)/C(=O)NC2=O`, the viability stood at 124. Next, `O=C(O)CCCc1c[nH]c2ccccc12`: 107; `CCCCn1c(=O)n(Cc2ccccc2F)c(=O)c2nc(Cc3ccc(NC(C)=O)cc3)[nH]c21`: 94; `COc1cc(OC)c(/C=C/[S+](=O)([O-])Cc2ccc(OC)c(NCC(=O)[O][Na])c2)c(OC)c1`: 118.

In the case of `Cc1cccc(CN2CCN(C(c3ccccc3)c3ccc(Cl)cc3)CC2)c1` (stereo unspecified), the viability was 87.2.

`COc1cc2c(N3CCN(C(=O)Nc4ccc(OC(C)C)cc4)CC3)ncnc2cc1OCCCN1CCCCC1` had a viability of 109.

For the compound `Fc1cc(-c2cccc3ncc(-c4cnn(C5CCNCC5)c4)nc23)cc(F)c1CN1CCOCC1`, the viability is 108.

Regarding `CO[C@H]1C[C@H]2OC[C@@]2(OC(C)=O)[C@H]3[C@H](OC(=O)C4=CC=CC=C4)[C@]5(O)C[C@H](OC(=O)[C@H](O)[C@@H](NC(=O)OC(C)(C)C)C6=CC=CC=C6)/C(=C(/[C@@H](OC)C(=O)[C@]13C)C5(C)C)C`, the viability was found to be 88.5. With `CC(=O)OCC(=O)[C@@]1(O)CC[C@H]2[C@@H]3CCC/4=C/C(=O)/C=C\[C@]4(C)[C@H]3[C@@H](O)C[C@]12C` the figure was 123; with `CC[C@H]1OC(=O)[C@H](C)[C@@H](O[C@H]2C[C@@](C)(OC)[C@@H](O)[C@H](C)O2)[C@H](C)[C@@H](O[C@@H]2O[C@H](C)C[C@H](N(C)C)[C@H]2O)[C@](C)(OC)C[C@@H](C)C(=O)[C@H](C)[C@@H](O)[C@]1(C)O`, 112. With `CC1(C)[C@@H](O)CC[C@@]2(C)[C@H]1CC[C@]3(C)[C@@H]2C(=O)\C=C/4[C@@H]5C[C@](C)(CC[C@]5(C)CC[C@@]34C)C(O)=O` the figure was 117. Next, `CC(C)c1ccc2c(c1)c(SC(C)(C)C)c(CC(C)(C)C(=O)[O-])n2Cc1ccc(Cl)cc1`: 115; `OC[C@H]1O[C@H]([C@H](O)[C@@H]1O)N2\C=C/C(=O)NC2=O`: 121.

The compound `COc1cc([C@@H]2c3cc4c(cc3[C@H](O)[C@H]3COC(=O)[C@@H]23)OCO4)cc(OC)c1OC` showed a viability of 99.5. Next, `CN(Cc1cnc2nc(N)nc(N)c2n1)c1ccc(C(=O)N[C@@H](CCC(=O)O)C(=O)O)cc1`: 111; `Cc1cnc(C(=O)O)c[n+]1[O-]`: 117. With `c1ccc2[nH]c(-c3cscn3)nc2c1` the figure was 124; with `CN(C)c1nc(N(C)C)nc(N(C)C)n1`, 95.4; with `COc1ccc(C(=O)CC2(O)C(=O)Nc3c(Cl)ccc(Cl)c32)cc1` (stereo unspecified), 113. With `Nc1nc(OCc2ccccc2)c2nc[nH]c2n1` the figure was 111. The compound `N#Cc1cc(NC(=O)Nc2nnc(-c3ccncc3)s2)ccc1-c1cn[nH]c1` yielded a viability of 101. `CCC1=C(C)CN(C(=O)NCCc2ccc(S(=O)(=O)NC(=O)N[C@H]3CC[C@H](C)CC3)cc2)C1=O` returned a viability of 113. On to `CCOC\1=C(/C(=O)NC2=CC=C(OC3=C(Cl)C(=NC=C3)N)C(=C2)F)C(=O)N(\C=C1)C4=CC=C(F)C=C4`, for which the viability is 77.8. Turning to `CCCCN(CCCC)CCC(O)c1cc2c(Cl)cc(Cl)cc2c2cc(C(F)(F)F)ccc12` (stereo unspecified), the viability worked out at 107.

The compound `CCCCC[C@H](O)/C=C/[C@H]1[C@H](O)CC(=O)[C@@H]1C/C=C\CCCC(=O)O` had a viability of 119. Next, `CC1Cc2ccccc2N1NC(=O)c1ccc(Cl)c([S+](N)(=O)[O-])c1` (stereo unspecified): 105. `CC1=CC=C2\N=C/3N(CC[C@@]3(O)C(=O)C2=C1)C4=CC=CC=C4` displayed a viability of 104. The compound `CCC(C)CCCCC(=O)N[C@@H](CCN)C(=O)NC(C(=O)N[C@H](CCN)C(=O)N[C@@H]1CCNC(=O)C([C@@H](C)O)NC(=O)[C@@H](CCN)NC(=O)[C@@H](CCN)NC(=O)[C@@H](CC(C)C)NC(=O)[C@H](Cc2ccccc2)NC(=O)[C@H](CCN)NC1=O)[C@@H](C)O` (stereo partly specified) registered a viability of 126.

In the case of `NC/1=N/C(=O)N(/C=N1)[C@@H]2O[C@H](CO)[C@@H](O)[C@H]2O`, the viability stood at 103. Next, `C[C@H]1C[C@H]2[C@@H]3CCC4=CC(=O)C=C[C@]4(C)[C@@]3(F)[C@@H](O)C[C@]2(C)[C@@]1(O)C(=O)CO`: 142; `Nc1nc(-c2nn(Cc3ccccc3F)c3ncccc23)nc(N)c1N1CCOCC1`: 111; `C[C@]12CC[C@H]3[C@@H](CCC4=CC(=O)CC[C@@H]43)[C@@H]1CC[C@@H]2OC(=O)CCc1ccccc1`: 118.

In turn, `CC1(C)O[C@@H]2C[C@H]3[C@@H]4CCC5=CC(=O)C=C[C@]5(C)[C@H]4[C@@H](O)C[C@]3(C)[C@]2(C(=O)CO)O1` displayed a viability of 147.

With `Cc1cc(O)c2c(c1)C(=O)c1cccc(O)c1C2=O`, the viability is 95.5.

In the case of `CN1[C@@H]2CC[C@H]1CC(OC(=O)c1c[nH]c3ccccc13)C2` (stereo partly specified), the viability came out at 134. In the case of `CCNC(=O)[C@H]1O[C@@H](n2cnc3c(N)nc(NCCc4ccc(CCC(=O)O)cc4)nc32)[C@H](O)[C@@H]1O`, the viability came out at 112.

Regarding `COC1=CC=C(C=C1)C/2=C/OC3=CC(=CC=C3C2=O)O`, the viability stood at 95.7. `CCC[C@H](N[C@@H](C)C(=O)N1[C@H](C(=O)O)C[C@@H]2CCCC[C@@H]21)C(=O)OCC` came in with a viability of 120. With `CC1(C)CCC[C@]2(C)[C@H]3CC(=O)O[C@]3(C)CC[C@@H]12` the figure was 96.

`CCOc1cc2c(c(F)c1OCC)C(=N)N(CC(=O)c1cc(N3CCOCC3)c(OC)c(C(C)(C)C)c1)C2` displayed a viability of 124.

`CC[C@H](NC(C)C)[C@H](O)c1ccc(O)c2[nH]c(=O)ccc12` showed a viability of 123. With `COC1=CC=C(C=C1)C/2=C(OC3O[C@@H](C)[C@H](O)[C@@H](O)[C@H]3O)/C(=O)C4=C(O2)C(=C(OC5O[C@H](CO)[C@@H](O)[C@H](O)[C@H]5O)C=C4O)CC=C(C)C` (stereo partly specified) the figure was 117; with `Clc1cccc(-n2nnnc2NCc2ccccc2Oc2ccccn2)c1Cl`, 116. For the compound `COc1cc2nc(-c3cc(F)ccc3O)nc(N[C@@H]3CNC[C@H]3C(C)(C)O)c2cc1OC`, the viability worked out at 59.9.

`COC(=O)Nc1nc2cc(C(=O)c3ccc(F)cc3)ccc2[nH]1` returned a viability of 88. With `OC1=CC2=C(C=C1)C(=O)\C(=C(O2)\C3=CC(=C(O)C=C3)O)O` the figure was 72.6. With `CC(C)C(=O)Oc1ccc(CO)cc1[C@H](CCN(C(C)C)C(C)C)c1ccccc1` the figure was 84.7; with `CC1=CC(=CC(=C1C\C2=N\CCN2)C)C(C)(C)C`, 130; with `O=C(CN1C(=O)C2(CCCC2)NC[C@H]1c1cc(F)cc(F)c1)Nc1ccc2c(c1)C[C@@]1(C2)C(=O)Nc2ncccc21`, 148. `c1ccc(CNc2nc(NCc3ccccc3)c3ccccc3n2)cc1`: the viability came to 51.8. Consider `COc1cc2c(cc1OC)[C@@H]1Cc3ccc(OC)c(OC)c3CN1CC2`, for which the viability was 115. With `CC(=O)Oc1cc2c(s1)CCN(C(C(=O)C1CC1)c1ccccc1F)C2.Cl` (stereo unspecified) the figure was 114.

In turn, `O=C1CCC[C@@H]2[C@H]3CCCN4CCC[C@@H](CN12)[C@@H]34` gave a viability of 117. The compound `CC(C)[C@H](CO)Nc1nc(Nc2ccc(C(=O)O)c(Cl)c2)c2ncn(C(C)C)c2n1` gave a viability of 75.1.

`CCn1c(=O)c2c(nc(/C=C/c3ccc(OC)c(OC)c3)n2C)n(CC)c1=O` showed a viability of 134.

Turning to `C[C@H]1COC2=C3N1\C=C(C(O)=O)/C(=O)C3=CC(=C2N4CCN(C)CC4)F`, the viability was 105.

Compound `OC1=CC2=C(C(=C1)O)C(=O)\C=C(/O2)C3=CC=CC=C3` displayed a viability of 126. Consider `CCn1c(-c2nonc2N)nc2cnc(Oc3cccc(NC(=O)c4ccc(OCCN5CCOCC5)cc4)c3)cc21`, for which the viability is 65.4. Next, `C[C@H]1C[C@H]2[C@@H]3CC[C@](O)(C(=O)CO)[C@@]3(C)C[C@H](O)[C@@H]2[C@@]\4(C)/C=C\C(=O)\C=C14`: 121.
